Peptide text beside a SMILES is read from it.
How the values were obtained:
[1] = biological target: T1, OprF (Pseudomonas aeruginosa, UniProt P13794); assay: Affinity pulldown/tandem mass spectrometry of PA14 lysate; format: binding, Pseudomonas aeruginosa PA14; conditions: 500 mM KCl eluate, n-octyl-β-D-glucopyranoside lysate, 4 °C
T1 construct: endogenous in cells; host or cells: P. aeruginosa PA14 overnight culture, n-octyl-β-D-glucopyranoside lysate
T1 sequence (P13794 25-350): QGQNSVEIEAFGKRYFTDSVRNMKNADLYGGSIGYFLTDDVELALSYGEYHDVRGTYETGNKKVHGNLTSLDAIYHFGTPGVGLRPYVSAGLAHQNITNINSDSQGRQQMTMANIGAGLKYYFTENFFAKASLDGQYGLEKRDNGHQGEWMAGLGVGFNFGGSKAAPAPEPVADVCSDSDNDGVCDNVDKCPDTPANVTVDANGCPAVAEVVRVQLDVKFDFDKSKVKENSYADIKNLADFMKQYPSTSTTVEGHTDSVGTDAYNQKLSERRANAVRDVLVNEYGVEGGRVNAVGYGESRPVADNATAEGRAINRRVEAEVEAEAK
Protocol: (§1) For generation of N-104 and negative control C-95 affinity columns, 2 mg of Cys(N)-N-104 or Cys(N)-C-95 in 2 ml of 50 mM Tris (pH 8.5), 5 mM EDTA coupling buffer were incubated with an equal volume of suspended SulfoLink Coupling Resin with mixing for 3 h at room temperature. Columns were subsequently washed with 3 ml of coupling buffer followed by 2 ml of freshly prepared 50 mM L-cysteine for 2 h at room temperature for quenching and then washed with 10 ml of 1 M NaCl prior to use or storage in 0.05% sodium azide at 4 °C. Coupling efficiency was determined using fluorescence from N-104's penultimate C-terminal tryptophan as 0.65 ± 0.04 μmole per ml of resin.
(§2) Screening for PA14 proteins with N-104 affinity columns was initiated from pelleted 2.5 L overnight cultures that were washed with ice-cold 10 mM Na2HPO4, 1.8 mM KH2PO4, 2.7 mM KCl, 137 mM NaCl (pH 7.2) and lysed by sonication in 25 ml of 50 mM Tris (pH 7.5), 1 mM MgCl2, 200 mM n-octyl-β-D-glucopyranoside with protease inhibitors. Sonication involved five cycles of 15 s with 45 s rest on ice followed by vortexing on ice for 30 min before being rocked end-over-end overnight at 4 °C. After centrifugation, the supernatant was subjected to end-over-end mixing with a 3-ml pre-column of Pierce Agarose followed by equal division by protein concentration for end-over-end incubation with 1 ml N-104 or C-95 columns at 4 °C. […]

[2] = test system: ^14C-spermidine uptake by PA14; format: cell-based, Pseudomonas aeruginosa
Protocol: 100 μl aliquots (0.8 × 10^8 cfu) of PA14 cell cultures in 1 mM Na2HPO4, 0.18 mM KH2PO4, 0.27 mM KCl, 13.7 mM NaCl without or with 1, 10, 25, 50 or 100 μM N-104 (or N-80/C-25 or C-95) for 45 min at 35 °C were incubated with 1 μl of 10 mM [1,4-^14C]putrescine (0.1 mCi/ml; ARC-0245–250, American Radiolabeled Chemicals) or [1,4-^14C]spermidine (0.1 mCi/ml; ARC-3138–50, American Radiolabeled Chemicals) for 15 min at 35 °C. Cell pellets were washed four times with 100 μl of 10 mM Na2HPO4, 1.8 mM KH2PO4, 2.7 mM KCl, 137 mM NaCl (pH 7.2) and then transferred to 4 ml of scintillation fluid (1200.437, PerkinElmer OptiPhase HiSafe 3) for analysis in a Beckman Coulter LS6500. Also assessed was radioactivity from the last wash. Single-molecule transportation per cell was estimated using standard curves for each radiolabeled polyamine.

[3] = test system: YaiW; assay: Affinity pulldown/tandem mass spectrometry of PA14 lysate; format: binding, Pseudomonas aeruginosa PA14; conditions: 500 mM KCl eluate, n-octyl-β-D-glucopyranoside lysate, 4 °C
Protocol: as §1, §2

[4] = test system: P. aeruginosa PA14; assay: N-104 sub-MIC generational resistance assay; format: cell-based, Pseudomonas aeruginosa; conditions: PA14 treated at subminimal inhibitory and minimal inhibitory concentrations, n = 2
Protocol: Supplementary Fig. 2. Thirty generations of PA14 fail to develop stable N-104 resistance together with biological replicates related to Fig. 2. A, Schematic of the N-104 sub-minimal inhibitory concentration (‘sub-MIC’) N-104 resistant assay. […] . This process was repeated through 30 generations. B, Generational fold change of N-104 MIC over 30 generations. The original sub-MIC N-104 concentration was 2 µM, for which there was no initial sub-MIC change ([mean], n = 2, *p<0.05; ns, not significant [Friedman ANOVA with Dunn's multiple comparisons test]). C, Biological replicates of the N-104 sub-MIC resistant assay. Scale bar is 2 mm. […] Scale bar is 2 mm.

[5] = Surface plasmon resonance on chip-supported Gram-negative model membrane

SMILES	binding of outer membrane OprF to immobilized peptide [1]	effect on ^14C-spermidine uptake ([2]; 1 to 100 μM peptide)	affinity of outer membrane YaiW for immobilized peptide [3]	development of resistance over 30 successive generations [4]	IC50 [2] [µM]	membrane lysis or disruption concluded from SPR ([5]; 2-25 μM N-104, PC:PG:PE and PC:PG membranes)	SPR response after buffer wash versus baseline ([5]; highest N-104 concentration (25 μM), flow 30 μl/min, 600 s, n = 4)
C[C@H](NC(=O)CNC(=O)[C@@H](NC(=O)[C@H](CO)NC(=O)[C@H](CC(=O)O)NC(=O)[C@H](CO)NC(=O)[C@H](CO)NC(=O)[C@H](C)NC(=O)[C@H](CC(=O)O)NC(=O)[C@@H](N)CCC(=O)O)[C@@H](C)O)C(=O)N[C@@H](CC(=O)O)C(=O)N1CCC[C@H]1C(=O)N[C@@H](C)C(=O)N[C@@H](CCC(N)=O)C(=O)N[C@@H](CCC(=O)O)C(=O)N[C@@H](C)C(=O)NCC(=O)N[C@H](C(=O)N[C@@H](CO)C(=O)N[C@@H](CCCCN)C(=O)N1CCC[C@H]1C(=O)N[C@@H](CC(N)=O)C(=O)N[C@@H](CCC(=O)O)C(=O)N[C@@H](CCC(=O)O)C(N)=O)[C@@H](C)O [C-95, reference compound] (H-EDASSDSTGADPAQEAGTSKPNEE-NH2)	binds OprF	had no effect					
CC(=O)N[C@@H](C)C(=O)N[C@@H](CCC(N)=O)C(=O)N[C@@H](CCCCN)C(=O)N[C@@H](CC(C)C)C(=O)N[C@@H](CC(C)C)C(=O)N[C@@H](CCCCN)C(=O)N[C@@H](CCCCN)C(=O)N[C@@H](Cc1ccccc1)C(=O)N[C@@H](CO)C(=O)N[C@@H](CC(C)C)C(=O)N[C@@H](CC(C)C)C(=O)N[C@@H](CCCCN)C(=O)N1CCC[C@H]1C(=O)N[C@@H](Cc1c[nH]c2ccccc12)C(=O)N[C@@H](C)C(=O)O [N-104] (Ac-AQKLLKKFSLLKPWA-OH)			selective affinity	No stable resistance was apparent	10	not membrane lytic nor substantially membrane disruptive	remained slightly elevated over baseline
